In ChEMBL document CHEMBL1667856, “Efficient synthesis and biological evaluation of 1,3-benzenedicarbonyl dithioureas” (Bioorg Med Chem Lett, 2011):
Values joined by “and” are separate entries in the source; they are usually repeats but may differ in a detail not shown here. Equal entries are not always repeated.

Tested on: not listed separately
Assay: Cytotoxicity against human CNE2 cells after 72 hrs by MTT assay
Format: functional, cell-based, CNE-2
Settings: Homo sapiens, CNE-2, 72 h
Compound `O=C(NC(=S)Nc1ccc(O)cc1)c1cccc(C(=O)NC(=S)Nc2ccc(O)cc2)c1` has an IC50 of 16.6 µM. Work on `O=C(NC(=S)Nc1ccc([N+](=O)[O-])cc1)c1cccc(C(=O)NC(=S)Nc2ccc([N+](=O)[O-])cc2)c1` yielded an IC50 greater than 50 µM. `O=C(NC(=S)Nc1ccccc1F)c1cccc(C(=O)NC(=S)Nc2ccccc2F)c1` showed an IC50 of 38.6 µM. Compound `O=C(NC(=S)Nc1ccccc1)c1cccc(C(=O)NC(=S)Nc2ccccc2)c1` has an IC50 greater than 50 µM. `Cc1ccc(NC(=S)NC(=O)c2cccc(C(=O)NC(=S)Nc3ccc(C)cc3)c2)cc1` gave an IC50 of 33 µM. With `O=C(NC(=S)Nc1ccccc1Cl)c1cccc(C(=O)NC(=S)Nc2ccccc2Cl)c1` the IC50 was greater than 50 µM. Compound `O=C(NC(=S)Nc1ccc(F)cc1)c1cccc(C(=O)NC(=S)Nc2ccc(F)cc2)c1` has an IC50 of 33 µM. For `O=C(NC(=S)Nc1ccccc1Br)c1cccc(C(=O)NC(=S)Nc2ccccc2Br)c1`, the IC50 was greater than 50 µM. Compound `COc1ccc(NC(=S)NC(=O)c2cccc(C(=O)NC(=S)Nc3ccc(OC)cc3)c2)cc1` has an IC50 of 30.3 µM. With `O=C(NC(=S)Nc1ccc(Br)cc1)c1cccc(C(=O)NC(=S)Nc2ccc(Br)cc2)c1` the IC50 was 32.7 µM. Work on `O=C(NC(=S)Nc1ccccc1C(F)(F)F)c1cccc(C(=O)NC(=S)Nc2ccccc2C(F)(F)F)c1` yielded an IC50 of 18.5 µM. Compound `Cc1ccccc1NC(=S)NC(=O)c1cccc(C(=O)NC(=S)Nc2ccccc2C)c1` has an IC50 greater than 50 µM. `O=C(NC(=S)Nc1cccc(Cl)c1)c1cccc(C(=O)NC(=S)Nc2cccc(Cl)c2)c1` gave an IC50 of 16.3 µM. `O=C(NC(=S)Nc1ccc(Cl)cc1)c1cccc(C(=O)NC(=S)Nc2ccc(Cl)cc2)c1` showed an IC50 of 15.7 µM. Work on `O=C(NC(=S)Nc1cccc(Br)c1)c1cccc(C(=O)NC(=S)Nc2cccc(Br)c2)c1` yielded an IC50 of 18.6 µM.

Same assay, conditions: cne-2
With `O=C(NC(=S)Nc1ccccc1O)c1cccc(C(=O)NC(=S)Nc2ccccc2O)c1` the IC50 was 9.91 µM and > 50 µM.

Tested on: KB
Assay: Cytotoxicity against human KB cells after 72 hrs by MTT assay
Format: functional, cell-based
Settings: Homo sapiens, KB, 72 h
Compound `O=C(NC(=S)Nc1ccc(O)cc1)c1cccc(C(=O)NC(=S)Nc2ccc(O)cc2)c1` has an IC50 of 20 µM. For `O=C(NC(=S)Nc1ccc([N+](=O)[O-])cc1)c1cccc(C(=O)NC(=S)Nc2ccc([N+](=O)[O-])cc2)c1`, the IC50 was 35.7 µM. With `O=c1[nH]cc(F)c(=O)[nH]1` [FLUOROURACIL] the IC50 was 15.9 µM. `O=C(NC(=S)Nc1ccccc1F)c1cccc(C(=O)NC(=S)Nc2ccccc2F)c1` gave an IC50 of 45 µM. `O=C(NC(=S)Nc1ccccc1)c1cccc(C(=O)NC(=S)Nc2ccccc2)c1` gave an IC50 greater than 50 µM. `Cc1ccc(NC(=S)NC(=O)c2cccc(C(=O)NC(=S)Nc3ccc(C)cc3)c2)cc1` showed an IC50 of 15.3 µM. `O=C(NC(=S)Nc1ccccc1Cl)c1cccc(C(=O)NC(=S)Nc2ccccc2Cl)c1` gave an IC50 of 38.8 µM. With `O=C(NC(=S)Nc1ccc(F)cc1)c1cccc(C(=O)NC(=S)Nc2ccc(F)cc2)c1` the IC50 was 43.2 µM. With `O=C(NC(=S)Nc1ccccc1Br)c1cccc(C(=O)NC(=S)Nc2ccccc2Br)c1` the IC50 was 47.1 µM. `COc1ccc(NC(=S)NC(=O)c2cccc(C(=O)NC(=S)Nc3ccc(OC)cc3)c2)cc1` showed an IC50 greater than 50 µM. Compound `O=C(NC(=S)Nc1ccc(Br)cc1)c1cccc(C(=O)NC(=S)Nc2ccc(Br)cc2)c1` has an IC50 of 23.2 µM. With `O=C(NC(=S)Nc1ccccc1C(F)(F)F)c1cccc(C(=O)NC(=S)Nc2ccccc2C(F)(F)F)c1` the IC50 was 26.1 µM. With `Cc1ccccc1NC(=S)NC(=O)c1cccc(C(=O)NC(=S)Nc2ccccc2C)c1` the IC50 was greater than 50 µM. For `O=C(NC(=S)Nc1cccc(Cl)c1)c1cccc(C(=O)NC(=S)Nc2cccc(Cl)c2)c1`, the IC50 was 12 µM. In the case of `O=C(NC(=S)Nc1ccc(Cl)cc1)c1cccc(C(=O)NC(=S)Nc2ccc(Cl)cc2)c1`, the IC50 is reported as 13.7 µM. In the case of `O=C(NC(=S)Nc1cccc(Br)c1)c1cccc(C(=O)NC(=S)Nc2cccc(Br)c2)c1`, the IC50 is reported as 15.2 µM.

Same assay, conditions: kb
With `O=C(NC(=S)Nc1ccccc1O)c1cccc(C(=O)NC(=S)Nc2ccccc2O)c1` the IC50 was 10.7 µM and > 50 µM.
